The test system of one data set is E. coli (K-12) lysate. Nature of the data set: Hydrolysis assay with E. coli lysate. In kind it is in vitro ADME. The settings on record: for apparent first-order rate constant of hydrolysis: compound 200 μM, E. coli lysate 0.1 U/mL, pH 7.4 PBS, 37° C. The procedure:
(§1) Hydrolysis assay: Wild-type E. coli strains (K12) were harvested by centrifugation and the cell pellets were lysed using a sonic device. After centrifugation, the supernatant was collected and the proteinase inhibitor was added in the E. coli lysate. The concentration of E. coli lysate was normalized by the fluorescence intensity of 5-carboxyfluorescein diacetate (CFDA). Briefly, different concentrations of CES (4 U/mL, 2 U/mL, 1 U/mL, 0.5 U/mL, 0.25 U/mL, 0.125 U/mL, 0.0625 U/mL, 0.03125 U/mL, 0.015625 U/mL and 0 U/mL) and different amount of E. coli lysates were prepared in PBS buffer. Followed by, 25 μM of CFDA was added in and incubated at room temperature for 1 hour. Then the fluorescence was tested to draw a fluorescence-concentration dependent curve for figuring out the concentration of E. coli lysates. Solutions of CLsuGG (200 μM) were prepared in pH 7.4 PBS buffer. CES and E. coli lysate (0.1 U/mL) were added and incubated with above solutions at 37° C. for 24 hours. At different time points, the solution was taken out, extracted with an equal volume of butanol, concentrated to dryness, and resuspended with butanol for HPLC analysis. HPLC was performed with Agilent 1100 Series Liquid Chromatograph equipped with an XTerra C18 reverse phase column and Variable Wavelength Detector. The hydrolyzed mixture resuspended in 1 mL of butanol was injected to HPLC mobile phase (0.1% trifluoroacetic acid, the starting ratio: 10% acetonitrile and 90% water). The system was run at a flow rate of 10 mL/min.
as §1, with “analysis.” for “analysis. HPLC was performed with Agilent 1100 Series Liquid Chromatograph equipped with an XTerra C18 reverse phase column and Variable Wavelength Detector. The hydrolyzed mixture resuspended in 1 mL of butanol was injected to HPLC mobile phase (0.1% trifluoroacetic acid, the starting ratio: 10% acetonitrile and 90% water). The system was run at a flow rate of 10 mL/min.”

Data set [1] deals with esterase (bioH, yjfP, frsA, ybfF, yfbB, ypfH, yeiG, or yqiA) deletion mutants of E. coli. In kind it is cell-based. The settings on record: single esterase gene deletion. The procedure:
Bacteria culture and inhibitory activity assay: Single esterase (BioH, YjfP, FrsA, YbfF, YfbB, YqiA, YeiG, or and YpfH) deletion mutants were purchased from Dharmacon Horizon Discovery (Cambridge, United Kingdom). The K12 wild-type E. coli strain (MG1655) was cultured in autoclaved LB medium (25 g/L LB broth/water) in a shaker-incubator overnight to stationary growth phase, and then sub-cultured in the same medium after dilution to OD600 of 0.05. Compounds were added at different concentrations. The mixture of bacteria and compounds were placed (200 μL/well) into 96-well clear flat bottom plates. In all plates, the OD600 was measured before and after 16 hour incubation at 37° C.
(§2) Bacteria culture and inhibitory activity assay: Single esterase (bioH, frsA, ybfF, yfbB, yqiA, yeiG, or ypfH) deletion mutants, bacterial transporter (ydgR, fepA and ompF) deletion mutants and the efflux pump (acrA) deletion mutant were all purchased from Dharmacon Horizon Discovery (Cambridge, United Kingdom). The K12 wild-type E. coli strain (MG1655) was cultured in autoclaved LB medium (25 g/L LB broth/water) in a shaker-incubator overnight to stationary growth phase, and then sub-cultured in the same medium after dilution to OD600 of 0.05. Compounds were added at different concentrations. The mixture of bacteria and compounds were placed (200 μL/well) into 96-well clear flat bottom plates. In all plates, the OD600 was measured before and after a 16 hour incubation at 37° C.

A short description of data set [2]: Stability in human serum (LC-MS). The data set is classed as in vitro ADME. The settings on record: 200 μM, 37° C.; for Compounds remaining (%) 0 h / Compounds remaining (%) 2 h / Compounds remaining (%) 24 h: human serum.
For data set [3], the system named is wild type E. coli strain (K-12). Nature of the data set: Bacteria culture and inhibitory activity assay (MIC). The data set is classed as cell-based. Particulars: for Effect of addition of exogenous PLE on inhibitory efficacy: porcine liver esterase 1 U/mL; for MIC: Escherichia coli. Here is the method: Bacteria culture and inhibitory activity assay: Single esterase (BioH, YjfP, FrsA, YbfF, YfbB, YqiA, YeiG, or and YpfH) deletion mutants were purchased from Dharmacon Horizon Discovery (Cambridge, United Kingdom). […] Compounds were added at different concentrations.
Compounds were added at different concentrations.

The test system of data set [4] is acrA efflux pump deletion mutant of E. coli. The settings on record: acrA mutant versus wild-type E. coli. The procedure:
as §2
(§3) Several representative peptides conjugating CLsu (e.g., 1c, 1d, 2b and 2c) were chosen to study the effects of conjugated peptides on the uptake of the prodrugs.

The subject of data set [5] is ydgR, fepA, ompF transporter deletion mutants of E. coli. Particulars: mutants versus wild-type E. coli. Here is the method: as §2, §3
The subject of a further data set is HS-5 cells. Nature of the data set: Cell viability assay (MTT), HS-5. The data set is classed as cell-based, human. The settings on record: 20 μM, 24 hours.
The next data set deals with carboxylesterase (CES). Nature of the data set: Hydrolysis assay with exogenous carboxylesterase. In kind it is in vitro ADME, porcine. The settings on record: CES 0.1 U/mL.
From the text: Experimental materials and instruments. All the solvents and chemical reagents were used directly as received from the commercial sources without further purification unless otherwise stated. Carboxylesterase (CES) from porcine liver was purchased from Sigma-Aldrich (lyophilized powder, >15 units/mg solid; Unit definition: One unit will hydrolyze 1.0 μmole of ethyl butyrate to butyric acid and ethanol per min at pH 8.0 at 25). CLsuGG, CLsuG, CLsuGGG were purified with Agilent 1100 Series Liquid Chromatography system, equipped with an XTerra C18 RP column and Variable Wavelength detector.
as §1, with “Briefly, different concentrations of CES (4 U/mL, 2 U/mL, 1 U/mL, 0.5 U/mL, 0.25 U/mL, 0.125 U/mL, 0.0625 U/mL, 0.03125 U/mL, 0.015625 U/mL and 0 U/mL) and different amount of E. coli lysates were prepared in PBS buffer. Followed by, 25 μM of CFDA was added in and incubated at room temperature for 1 hour.” left out, “CES and E. coli lysate (0.1 U/mL) were added and incubated with above solutions at 37° C. for 24 hours.” left out

Values after ≈ are worked out from the molar mass of the structure shown. “Also recorded” adds a separate entry of the source. Read-outs that look alike come from different tables or passages of the source. Bounds are passed on as bounds.

As to `NCCCCC(NC(=O)C(CCCCN)NC(=O)CCC(=O)OCC(NC(=O)C(Cl)Cl)C(O)c1ccc([N+](=O)[O-])cc1)C(=O)O` (stereo not shown) [Compound 2b], in the data set on E. coli (K-12) lysate, the “apparent first-order rate constant of hydrolysis” value came to 0.317 h⁻¹. Also, the “reduction of antibacterial activity by deletion of the cytoplasmic esterase” value (“reduction of antibacterial activity” below) in data set [1] was “about 20%”. Moreover, in data set [2], the “Compounds remaining (%) 0 h” value was 100%, the “Compounds remaining (%) 2 h” value was determined as 52.9% and the “Compounds remaining (%) 24 h” value is listed as 0%. Also, the “Effect of addition of exogenous PLE on inhibitory efficacy” value (from here on “Effect … on inhibitory efficacy”) in data set [3] is reported as “hardly changes”. In data set [3] (wild type E. coli (K-12)), the “MIC (μM)” value amounted to 200 µM (≈ 136 µg/mL). In addition, in data set [4], the “reduction of the viabilities of the acrA deletion mutant treated by the conjugates” value (from here on “reduction of the viabilities … by the conjugates”) is 20%. Moreover, the “effect of deletion of ydgR, fepA, or ompF on treated bacteria” value (from here on “effect of deletion of ydgR, fepA”) in data set [5] is recorded as “hardly rescues the bacteria”.
For the molecule `O=C(O)CCC(=O)OC[C@@H](NC(=O)C(Cl)Cl)[C@H](O)c1ccc([N+](=O)[O-])cc1` [CLsu, chloramphenicol succinate, reference compound], the fraction hydrolyzed entry with E. coli (K-12) lysate (24 hours after addition of E. coli lysate) is “less than 20%”. The “cytotoxicity / cell viability of HS-5 cells” value in the data set with HS-5 cells was “largely innocuous; also recorded: lower cytotoxicity than CL”. Also, the “conversion in human serum” value in data set [2] (after 24 hours) is listed as “less than 15%”. Moreover, in data set [2], the “Compounds remaining (%) 0 h” value is given as 100%, the “Compounds remaining (%) 2 h” value is 96.2% and the “Compounds remaining (%) 24 h” value turned out to be 87.0%. Further, the MIC in data set [3] (read-out: MIC value before addition of exogenous CES) turned out to be 90 µM. Moreover, in data set [3] (FIG. 3B, with exogenous carboxylesterase (CES), read-out: MIC value after addition of exogenous CES), the MIC is 49 µM. Besides, the MIC in data set [3] (wild type E. coli (K-12), read-out: MIC) is more than 200 µM. Further, in data set [3] (wild type E. coli (K-12), read-out: MIC (μg/mL)), the MIC is more than 84.6 µg/mL. Further, in data set [3] (wild type E. coli (K-12)), the “MIC (μM)” value was more than 200 µM and the “MIC (μg/mL)” value is more than 84.6 µg/mL. The “hydrolysis with addition of CES” value with carboxylesterase (CES) was “hardly undergoes hydrolysis”.
`NCCCCC(NC(=O)C(CCCCN)NC(=O)CCC(=O)OCC(NC(=O)C(Cl)Cl)C(O)c1ccc([N+](=O)[O-])cc1)C(=O)O` (stereo not shown) [Compound 2c]: the “apparent first-order rate constant of hydrolysis” value in the data set on E. coli (K-12) lysate was found to be 0.310 h⁻¹. Moreover, in data set [1], the “reduction of antibacterial activity” value is on record as “about 20%”. In data set [2], the “Compounds remaining (%) 0 h” value came to 100%, the “Compounds remaining (%) 2 h” value is 49.2% and the “Compounds remaining (%) 24 h” value stood at 0%. In addition, the “Effect … on inhibitory efficacy” value in data set [3] is listed as “hardly changes”. For the same molecule, in data set [3] (wild type E. coli (K-12)), the “MIC (μM)” value stood at 200 µM (≈ 136 µg/mL). Also, in data set [4], the “reduction of the viabilities … by the conjugates” value is 50%. Further, the “effect of deletion of ydgR, fepA” value in data set [5] was “hardly rescues the bacteria”.
In the case of `O=C(CCC(=O)OCC(NC(=O)C(Cl)Cl)C(O)c1ccc([N+](=O)[O-])cc1)NCC(=O)NC(CO)C(=O)O` (stereo not shown) [Compound 1c], the “apparent first-order rate constant of hydrolysis” value in the data set on E. coli (K-12) lysate is 3.763 h⁻¹. The “reduction of antibacterial activity” value in data set [1] was “about 20%”. In data set [2], the “Compounds remaining (%) 0 h” value is 100%, the “Compounds remaining (%) 2 h” value is 0% and the “Compounds remaining (%) 24 h” value is 0%. In data set [3], the “Effect … on inhibitory efficacy” value is “hardly changes”. Also, the “MIC (μM)” value in data set [3] (wild type E. coli (K-12)) was determined as 20 µM (≈ 11.3 µg/mL). The “reduction of the viabilities … by the conjugates” value in data set [4] is reported as 30%. Besides, the “effect of deletion of ydgR, fepA” value in data set [5] is on record as “hardly rescues the bacteria”.
With `O=C(O)CNC(=O)C(CO)NC(=O)CCC(=O)OCC(NC(=O)C(Cl)Cl)C(O)c1ccc([N+](=O)[O-])cc1` (stereo not shown) [Compound 1d], the “apparent first-order rate constant of hydrolysis” value with E. coli (K-12) lysate was found to be 1.267 h⁻¹. Moreover, the “reduction of antibacterial activity” value in data set [1] was approximately 10%. Also, in data set [2], the “Compounds remaining (%) 0 h” value turned out to be 100%, the “Compounds remaining (%) 2 h” value is recorded as 16.7% and the “Compounds remaining (%) 24 h” value was 0%. Further, the “Effect … on inhibitory efficacy” value in data set [3] is “hardly changes”. The “MIC (μM)” value in data set [3] (wild type E. coli (K-12)) amounted to 40 µM (≈ 22.7 µg/mL). The “reduction of the viabilities … by the conjugates” value in data set [4] worked out at 40%. The “effect of deletion of ydgR, fepA” value in data set [5] is “hardly rescues the bacteria”.

These data come from patent US12622975B2, “Peptide-conjugated prodrugs” (priority 2019, dated 2026).
